According to patent publication US11000033B2, “Ketone or oxime compound, and herbicide” (NISSAN CHEMICAL CORPORATION, priority 2014, dated 2021):

Key:
Type in all cases: in vivo
rice plant = assay: Test Example 5: effect on crop by foliage application, plastic box (symbol b); conditions: 320 g/ha, 3 weeks after application
In short: (§1)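 Plants were raised from seed in a greenhouse (25° C. to 30° C.) after sowing in a plastic box of sterilized diluvial soil.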

Cyperus difformis = assay: Test Example 3: herbicidal effect by foliage application, Wagner pot (symbol E); conditions: application herbicide amount 320 g/ha
In short: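 The compound, formulated as an emulsion and diluted with water to a predetermined rate, is applied uniformly to leaves of two-week-old seedlings growing in submerged alluvial soil at 25–30 °C. Rice is included. Each plant is assessed 3 weeks later using defined criteria.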

Scirpus juncoides [1] = assay: Test Example 1: herbicidal activity, application before weed generation in submerged conditions (symbol B); conditions: application herbicide amount 320 g/ha
In short: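 Compound emulsion was diluted to a set herbicide amount and applied to the water surface on the sowing day, into submerged (4 cm) alluvial-soil pots sown with mixed weed seeds and transplanted 2.5-leaf rice. Pots were held in a 25–30 °C greenhouse, and weeds were scored 0–5 by herbicidal ratio after 3 weeks.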

wheat = assay: Test Example 5: effect on crop by foliage application, plastic box (symbol e); conditions: 320 g/ha, 3 weeks after application
In short: as §1

[2] = test system: Echinochloa oryzacola Vasing.; assay: Test Example 2: herbicidal activity, application during weed generation in submerged conditions (symbol A); conditions: Table 23; application herbicide amount 320 g/ha; grade 0-5 by criteria of Test Example 1
In short: (§2)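 Treatment timing was the one- to two-leaf stage, with diluted emulsifiable compound dropped onto the paddy water (depth 4 cm) over alluvial soil. All three species grew from a mixed sowing in a 25° C. to 30° C. greenhouse. Injury was judged by eye 3 weeks on.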

corn = assay: Test Example 4: effect on crop by soil treatment (symbol c); conditions: application herbicide amount 320 g/ha
In short: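 Steps: fill box with sterilized diluvial soil; sow seed spot-like; cover with ~1.5 cm soil; grow in greenhouse (25° C. to 30° C.).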

Veronica persica = assay: Test Example 5: herbicidal effect by foliage application, plastic box (symbol R); conditions: 320 g/ha, 3 weeks after application
In short: (§3)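 After sowing into sterilized diluvial soil and growing two weeks under glass at 25° C. to 30° C., seedlings receive a uniform foliar spray of diluted emulsion. Damage is judged visually three weeks on.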

Scirpus juncoides [3] = assay: Test Example 2: herbicidal activity, application during weed generation in submerged conditions (symbol B); conditions: Table 23; application herbicide amount 320 g/ha; grade 0-5 by criteria of Test Example 1
In short: as §2

Amaranthus retroflexus = assay: Test Example 5: herbicidal effect by foliage application, plastic box (symbol N); conditions: 320 g/ha, 3 weeks after application
In short: as §3

soybean = assay: Test Example 5: effect on crop by foliage application, plastic box (symbol d); conditions: 320 g/ha, 3 weeks after application
In short: as §1

Stellaria media = assay: Test Example 4: herbicidal effect by soil treatment (symbol P); conditions: application herbicide amount 320 g/ha
In short: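 Seeds were sown in sterilized diluvial soil, covered with about 1.5 cm of soil, and the soil surface was sprayed with a water-diluted emulsion of the compound at a predetermined rate. Plants grew in a greenhouse at 25° C. to 30° C.; effects were scored visually 3 weeks after application.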

Row | Compound | b: directly sowed rice plant, effect on crop (criteria of Test Example 1) (rice plant) | herbicidal effect on E, grade 0-5 (Cyperus difformis) | Herbicidal effect grade, B: Scirpus juncoides (Scirpus juncoides [1]) | e: wheat, effect on crop (criteria of Test Example 1) (wheat) | Herbicidal effect grade, A: Echinochloa oryzacola Vasing. [2] | Effect on crop grade, c: corn (corn) | R: Veronica persica, herbicidal effect (criteria of Test Example 1) (Veronica persica) | Herbicidal effect grade, B: Scirpus juncoides (Scirpus juncoides [3]) | N: Amaranthus retroflexus, herbicidal effect (criteria of Test Example 1) (Amaranthus retroflexus) | d: soybean, effect on crop (criteria of Test Example 1) (soybean) | P: Stellaria media, herbicidal effect grade (Stellaria media) | c: corn, effect on crop grade (corn) | b: directly sowed rice plant, effect on crop grade (rice plant) | e: wheat, effect on crop grade (wheat) | c (corn) effect on crop grade (corn) | R: Veronica persica, herbicidal effect grade (Veronica persica) | N: Amaranthus retroflexus, herbicidal effect grade (Amaranthus retroflexus) | d: soybean, effect on crop grade (soybean) | Herbicidal effect grade, P: Stellaria media (Stellaria media)
1 | CCc1cc(Br)cc(C)c1C1=C(O)CC(C(C(C)=O)C(=O)OC)C1=O (stereo not drawn) [7-001] | 1 (Herbicidal ratio of 5% or higher and lower than 20%) | 0 (Herbicidal ratio of 5% or lower (almost no effect)) | 0 (Herbicidal ratio of 5% or lower (almost no effect)) | 0 (Herbicidal ratio of 5% or lower (almost no effect)) | 0 (Herbicidal ratio of 5% or lower (almost no effect)) | 0 (Herbicidal ratio of 5% or lower (almost no effect)) | 0 (Herbicidal ratio of 5% or lower (almost no effect)) | 0 (Herbicidal ratio of 5% or lower (almost no effect)) | 0 (Herbicidal ratio of 5% or lower (almost no effect)) | 0 (Herbicidal ratio of 5% or lower (almost no effect)) | – | – | – | – | – | – | – | – | –
2 | CCc1cc(-c2ccc(Cl)cc2)cc(C)c1C1=C(O)CC(CC(C)=NOC)C1=O (stereo not drawn) [6-066] | 5 (Herbicidal ratio of 90% or more (almost completely withered)) | 5 (Herbicidal ratio of 90% or more (almost completely withered)) | 3 (Herbicidal ratio of 40% or higher and lower than 70%) | 5 (Herbicidal ratio of 90% or more (almost completely withered)) | 5 (Herbicidal ratio of 90% or more (almost completely withered)) | – | – | 0 (Herbicidal ratio of 5% or lower (almost no effect)) | 3 (Herbicidal ratio of 40% or higher and lower than 70%) | 3 (Herbicidal ratio of 40% or higher and lower than 70%) | 0 (Herbicidal ratio of 5% or lower (almost no effect)) | 4 (Herbicidal ratio of 70% or higher and lower than 90%) | – | – | – | – | – | – | –
3 | CCc1cc(-c2ccc(Cl)cc2)cc(C)c1C1=C(OC(=O)N2CCOCC2)CC(CC(C)=NOC)C1=O (mixture of isomers) [6-064] | 5 (Herbicidal ratio of 90% or more (almost completely withered)) | 0 (Herbicidal ratio of 5% or lower (almost no effect)) | 0 (Herbicidal ratio of 5% or lower (almost no effect)) | 5 (Herbicidal ratio of 90% or more (almost completely withered)) | 4 (Herbicidal ratio of 70% or higher and lower than 90%) | – | 4 (Herbicidal ratio of 70% or higher and lower than 90%) | 0 (Herbicidal ratio of 5% or lower (almost no effect)) | – | 0 (Herbicidal ratio of 5% or lower (almost no effect)) | 0 (Herbicidal ratio of 5% or lower (almost no effect)) | 0 (Herbicidal ratio of 5% or lower (almost no effect)) | – | – | – | – | – | – | –
4 | CON=C(C)CC1CC(OC(=O)C(C)(C)Oc2ccccc2)=C(c2c(C)cc(C)cc2C)C1=O (stereo not drawn) [1-017] | – | 5 (Herbicidal ratio of 90% or more (almost completely withered)) | 5 (Herbicidal ratio of 90% or more (almost completely withered)) | – | 5 (Herbicidal ratio of 90% or more (almost completely withered)) | – | – | 4 (Herbicidal ratio of 70% or higher and lower than 90%) | – | – | – | – | 5 (Herbicidal ratio of 90% or more (almost completely withered)) | 5 (Herbicidal ratio of 90% or more (almost completely withered)) | 4 (Herbicidal ratio of 70% or higher and lower than 90%) | 3 (Herbicidal ratio of 40% or higher and lower than 70%) | 4 (Herbicidal ratio of 70% or higher and lower than 90%) | 4 (Herbicidal ratio of 70% or higher and lower than 90%) | –
5 | CC(=O)CC1CC(O)=C(c2c(C)cc(Oc3ccc(C(F)(F)F)cn3)cc2C)C1=O (stereo not drawn) [7-019] | 1 (Herbicidal ratio of 5% or higher and lower than 20%) | 2 (Herbicidal ratio of 20% or higher and lower than 40%) | 0 (Herbicidal ratio of 5% or lower (almost no effect)) | 0 (Herbicidal ratio of 5% or lower (almost no effect)) | – | 0 (Herbicidal ratio of 5% or lower (almost no effect)) | 0 (Herbicidal ratio of 5% or lower (almost no effect)) | – | 0 (Herbicidal ratio of 5% or lower (almost no effect)) | 0 (Herbicidal ratio of 5% or lower (almost no effect)) | – | – | – | – | – | – | – | – | 0 (Herbicidal ratio of 5% or lower (almost no effect))
6 | CON=C(C)CC1CC(OC(=O)C(C)(C)CCl)=C(c2c(C)cc(C)cc2C)C1=O (stereo not drawn) [1-016] | – | 5 (Herbicidal ratio of 90% or more (almost completely withered)) | 5 (Herbicidal ratio of 90% or more (almost completely withered)) | – | 5 (Herbicidal ratio of 90% or more (almost completely withered)) | – | – | 4 (Herbicidal ratio of 70% or higher and lower than 90%) | – | – | – | – | 5 (Herbicidal ratio of 90% or more (almost completely withered)) | 5 (Herbicidal ratio of 90% or more (almost completely withered)) | 4 (Herbicidal ratio of 70% or higher and lower than 90%) | 4 (Herbicidal ratio of 70% or higher and lower than 90%) | 4 (Herbicidal ratio of 70% or higher and lower than 90%) | 4 (Herbicidal ratio of 70% or higher and lower than 90%) | –
7 | CON=C(C)CC1CC(OC(=O)N2CCOCC2)=C(c2c(C)cc(-c3ccc(Cl)cc3)cc2OC)C1=O (stereo not drawn) [6-078, 2-(4′-chloro-3-methoxy-5-methyl-[1,1′-biphenyl]-4-yl)-4-{2-(methoxyimino)propyl}-3-oxocyclopent-1-ene-1-yl morpholine-4-carboxylate] | – | 0 (Herbicidal ratio of 5% or lower (almost no effect)) | 5 (Herbicidal ratio of 90% or more (almost completely withered)) | 5 (Herbicidal ratio of 90% or more (almost completely withered)) | 4 (Herbicidal ratio of 70% or higher and lower than 90%) | – | 3 (Herbicidal ratio of 40% or higher and lower than 70%) | 2 (Herbicidal ratio of 20% or higher and lower than 40%) | 0 (Herbicidal ratio of 5% or lower (almost no effect)) | 0 (Herbicidal ratio of 5% or lower (almost no effect)) | 0 (Herbicidal ratio of 5% or lower (almost no effect)) | 0 (Herbicidal ratio of 5% or lower (almost no effect)) | – | – | – | – | – | – | –
